We go through 9 molecules from patent US12521393B2, “Cytotoxicity targeting chimeras for CCR2-expressing cells” (GLAXOSMITHKLINE INTELLECTUAL PROPERTY DEVELOPMENT LIMITED, priority 2021, dated 2026).

Experiment [1] deals with CCR2 expressing cells (CD11b+Ly6c+Hi) in peripheral blood. In words: In vivo depletion assay, flow cytometry of peripheral blood (Example 201). Also on record: species or system human CCR2 knock-in mice (C57 background). The following applies: hCCR2 knock-in mice, IV 0.1 mpk compound + 10 mpk anti-cotinine antibody (SEQ ID NO: 13/14), peripheral blood at 48 hr. A digest of the protocol: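 Flow cytometry of blood collected at study termination quantified percent depletion of CD11b+Ly6c+Hi cells and CCR2 expression, using surface markers CD45, CD3, CD11b, Ly6C, human CCR2 after Fc block, with 7AAD viability stain. Compound given in saline:DMSO:PBS formulation, optionally combined with anti-cotinine antibody, incubated 30 min before administration.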
Background: Flow cytometry measures light scatter and fluorescence of single cells or particles in a stream.

For experiment [2], the target named is human alpha1 nicotinic acetylcholine (nACh) receptor (Homo sapiens, UniProt P02708). Briefly: Nicotinic acetylcholine receptor antagonism assay, IONFlux automated patch clamp (Example 203). The following applies: for IC50: antagonism of ACh-stimulated human alpha1 nAChR current, patch clamp; for Emax at 100 µM: maximum percentage antagonism at maximum concentration tested 100 μM; for Emax at 100 µM / Emax at 10 µM: read-out: Maximum Response; for Emax at 10 µM: maximum percentage antagonism at maximum concentration tested 10 μM. The format is cell-based. The procedure: Cells expressing human alpha1 nicotinic acetylcholine (nACh) receptor (nAChR) were washed and dissociated using Trypsin containing buffer. Cells were then washed and seeded at a density of 3-5 million cells/mL and allowed to grow for 3 days. Then, 60-80 μL of cells were added to plates and incubated with dose response of an ARM compound of Formula (I) with a top concentration of either 10 μM or 100 μM. The receptor was then stimulated via addition of acetylcholine (ACh) and activation of the receptor was monitored via the IONFlux automated patch clamp system. IonFlux Data Analyzer software was utilized to perform leak subtraction and measure (min) peak current amplitude.
Sequence of human alpha1 nicotinic acetylcholine (nACh) receptor (P02708 21-457): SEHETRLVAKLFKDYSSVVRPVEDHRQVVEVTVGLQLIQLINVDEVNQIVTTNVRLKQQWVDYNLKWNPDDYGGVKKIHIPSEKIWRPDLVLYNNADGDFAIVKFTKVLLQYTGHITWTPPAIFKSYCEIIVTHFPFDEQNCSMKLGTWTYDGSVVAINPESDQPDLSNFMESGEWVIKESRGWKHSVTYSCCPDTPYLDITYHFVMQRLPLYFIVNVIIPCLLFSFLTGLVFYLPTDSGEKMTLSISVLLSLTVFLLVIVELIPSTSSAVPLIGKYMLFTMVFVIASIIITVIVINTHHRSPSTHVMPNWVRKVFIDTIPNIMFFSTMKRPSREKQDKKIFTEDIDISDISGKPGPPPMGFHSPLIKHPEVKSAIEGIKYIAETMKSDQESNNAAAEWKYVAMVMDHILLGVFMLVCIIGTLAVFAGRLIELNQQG
Sequence of human alpha1 nicotinic acetylcholine (nACh) receptor (P11230 24-501 partner): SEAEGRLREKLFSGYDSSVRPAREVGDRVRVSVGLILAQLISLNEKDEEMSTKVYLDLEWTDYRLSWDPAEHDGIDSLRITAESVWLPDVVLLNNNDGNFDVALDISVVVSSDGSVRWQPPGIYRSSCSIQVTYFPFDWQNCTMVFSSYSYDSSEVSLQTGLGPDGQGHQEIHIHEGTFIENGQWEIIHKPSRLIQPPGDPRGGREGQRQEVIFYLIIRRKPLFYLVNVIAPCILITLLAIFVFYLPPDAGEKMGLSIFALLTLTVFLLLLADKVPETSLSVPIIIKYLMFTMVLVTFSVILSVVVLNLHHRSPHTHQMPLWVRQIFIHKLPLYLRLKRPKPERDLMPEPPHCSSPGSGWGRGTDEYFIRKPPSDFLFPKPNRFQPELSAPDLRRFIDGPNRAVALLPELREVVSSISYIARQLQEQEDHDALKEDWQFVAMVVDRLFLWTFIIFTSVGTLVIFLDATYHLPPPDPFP
Sequence of human alpha1 nicotinic acetylcholine (nACh) receptor (Q07001 22-517 partner): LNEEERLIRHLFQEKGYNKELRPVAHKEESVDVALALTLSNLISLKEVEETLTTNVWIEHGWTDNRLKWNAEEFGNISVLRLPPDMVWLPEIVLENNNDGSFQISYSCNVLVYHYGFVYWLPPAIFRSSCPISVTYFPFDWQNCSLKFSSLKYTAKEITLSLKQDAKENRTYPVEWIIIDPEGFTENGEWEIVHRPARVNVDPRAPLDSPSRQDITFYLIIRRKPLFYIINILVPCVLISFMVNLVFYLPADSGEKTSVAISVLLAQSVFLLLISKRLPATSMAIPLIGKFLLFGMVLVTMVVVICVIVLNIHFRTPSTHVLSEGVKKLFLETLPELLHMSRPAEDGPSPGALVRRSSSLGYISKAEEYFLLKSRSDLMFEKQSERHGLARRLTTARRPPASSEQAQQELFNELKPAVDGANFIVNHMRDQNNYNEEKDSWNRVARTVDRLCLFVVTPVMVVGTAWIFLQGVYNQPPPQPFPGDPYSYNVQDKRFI
Data processing: (1) Current values recorded for vehicle only applications in individual traps/patterns were subtracted from corresponding current amplitude values for control, test article and control+test article. (2) Control response was calculated as % of the average response of the 3rd out of total 3 ACh (10 mM) applications alone. In rare situations, if the 3rd ACh response was obscured due to technical artifacts, the 2nd and/or 1st ACh (10 mM) application was considered as control. The peak current amplitude generated in the presence of each test article concentration was then used to calculate the % inhibition as compared to control response (10 mM ACh alone). These estimates were further corrected for vehicle response and run down corrected by normalizing with time matched control responses (10 mM ACh alone). The corrected percentages were then fit with a non-linear function in GraphPad Prism 6 (or later versions) to determine the IC50.
Exclusion criteria: (i) any n's with poor recording quality, (ii) control current amplitude <500 pA or (iii) significant outliers, as determined by the Grubbs test.
ARMs compounds of Formula (I) of the invention were tested for antagonism of the nAChR in the above assay in […] experimental runs and the results are shown in Table 7 below. Antagonistic activity of the compounds of Formula (I) of the invention is reported as an IC50 value (half maximal inhibitory concentration) and the maximum percentage antagonism observed at the highest concentration of compound of Formula (I) tested, as indicated in Table 7. For compounds tested in more than one experimental run, the IC50 value is reported as an average
(In general: Patch clamp records ionic current or voltage across a cell membrane.)

The subject of experiment [3] is endogenous target monocytes in human PBMC. In words: PBMC ex vivo monocyte depletion flow cytometry assay (Example 200). The format is cell-based. The following applies: with anti-cotinine antibody (SEQ ID NO: 11/12), 18-24 hours, EC50 in molar, read-out: Ex Vivo Depletion Assay pEC50 (converted). A digest of the protocol:
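Monocyte depletion is reported as pEC50, averaged or given individually across runs, and read by flow cytometry staining CD45, CD14 and CD4 with a viability dye. Compounds, diluted four-fold over 11 points from 1 mM DMSO stocks, were combined with 30 μg/mL Fc-enhanced anti-cotinine antibody and human PBMC, then incubated 18-24 h at 37° C.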

For orientation: IC50 means the midpoint of a concentration-inhibition curve. For the molecule `CC(C)N(C)[C@@H]1CC[C@H](N2CC[C@H](Nc3ncnc4ccc(C(F)(F)F)cc34)C2=O)[C@H](NC(=O)[C@H]2C[C@H](NC(=O)CCCO[C@H]3CC[C@H](OCCNC(=O)[C@H]4CC(=O)N(C)[C@@H]4c4cccnc4)CC3)C2)C1` [Example 8, (2S,3S)-N-(2-(((1R,4S)-4-(4-(((1R,3R)-3-(((1R,2S,5R)-5-(Isopropyl(methyl)amino)-2-((S)-2-oxo-3-((6-(trifluoromethyl)quinazolin-4-yl)amino)pyrrolidin-1-yl)cyclohexyl)carbamoyl)cyclobutyl)amino)-4-oxobutoxy)cyclohexyl)oxy)ethyl)-1-methyl-5-oxo-2-(pyridin-3-yl)pyrrolidine-3-carboxamide], in experiment [1], the “% Depletion of CCR2 expressing cells” value is on record as 90.3%. In addition, in experiment [2], half-maximal inhibition (IC50) required 47.2 µM and the Emax at 100 µM came out at 73.1%.
Take `CC(C)N(C)[C@@H]1CC[C@H](N2CC[C@H](Nc3ncnc4ccc(C(F)(F)F)cc34)C2=O)[C@H](NC(=O)[C@H]2CC[C@@H](NC(=O)CCOCCCNC(=O)CCCNC(=O)[C@H]3CC(=O)N(C)[C@@H]3c3cccnc3)CC2)C1` [Example 17, (2S,3S)-N-(4-((3-(3-(((1S,4s)-4-(((1R,2S,5R)-5-(Isopropyl(methyl)amino)-2-((S)-2-oxo-3-((6-(trifluoromethyl)quinazolin-4-yl)amino)pyrrolidin-1-yl)cyclohexyl)carbamoyl)cyclohexyl)amino)-3-oxopropoxy)propyl)amino)-4-oxobutyl)-1-methyl-5-oxo-2-(pyridin-3-yl)pyrrolidine-3-carboxamide]: in experiment [3], the EC50 is 0.000631 µM. Besides, the “% Depletion of CCR2 expressing cells” value in experiment [1] is recorded as 91%. For the same molecule, in experiment [2], the IC50 was at least 100 µM and the Emax at 100 µM was 55.1%.
Take `CC(C)N(C)[C@@H]1CC[C@H](N2CC[C@H](Nc3ncnc4ccc(C(F)(F)F)cc34)C2=O)[C@H](NC(=O)[C@H]2C[C@H](NC(=O)CCOCCOCCOCCNC(=O)[C@H]3CC(=O)N(C)[C@@H]3c3cccnc3)C2)C1` [Example 27, (2S,3S)-N-(2-(2-(2-(3-(((1R,3r)-3-(((1R,2S,5R)-5-(Isopropyl(methyl)amino)-2-((S)-2-oxo-3-((6-(trifluoromethyl)quinazolin-4-yl)amino)pyrrolidin-1-yl)cyclohexyl)carbamoyl)cyclobutyl)amino)-3-oxopropoxy)ethoxy)ethoxy)ethyl)-1-methyl-5-oxo-2-(pyridin-3-yl)pyrrolidine-3-carboxamide]: in experiment [3], the EC50 was 0.01 µM. Also, the “% Depletion of CCR2 expressing cells” value in experiment [1] amounted to 80%. Moreover, in experiment [2], 93.7 µM corresponded to half-maximal inhibition (IC50) and the Emax at 100 µM was found to be 53.8%.
For `CC(C)N(C)[C@@H]1CC[C@H](N2CC[C@H](Nc3ncnc4ccc(C(F)(F)F)cc34)C2=O)[C@H](NC(=O)[C@H]2C[C@@H](NC(=O)CCOCCNC(=O)CCOCCNC(=O)[C@H]3CC(=O)N(C)[C@@H]3c3cccnc3)C2)C1` [Example 44, (2S,3S)-N-(2-(3-((2-(3-(((1S,3s)-3-(((1R,2S,5R)-5-(Isopropyl(methyl)amino)-2-((S)-2-oxo-3-((6-(trifluoromethyl)quinazolin-4-yl)amino)pyrrolidin-1-yl)cyclohexyl)carbamoyl)cyclobutyl)amino)-3-oxopropoxy)ethyl)amino)-3-oxopropoxy)ethyl)-1-methyl-5-oxo-2-(pyridin-3-yl)pyrrolidine-3-carboxamide], the EC50 in experiment [3] was 0.000631 µM. In experiment [1], the “% Depletion of CCR2 expressing cells” value was 91%. Also, in experiment [2], the IC50 is at least 100 µM and the Emax at 100 µM is 51.5%.
Take `CC(C)N(C)[C@@H]1CC[C@H](N2CC[C@H](Nc3ncnc4ccc(C(F)(F)F)cc34)C2=O)[C@H](NC(=O)c2ccc(C3CCN(CCOCCOCCNC(=O)[C@H]4CC(=O)N(C)[C@@H]4c4cccnc4)CC3)cn2)C1` [Example 94, N-((1R,2S,5R)-5-(Isopropyl(methyl)amino)-2-((S)-2-oxo-3-((6-(trifluoromethyl)quinazolin-4-yl)amino)pyrrolidin-1-yl)cyclohexyl)-5-(1-(2-(2-(2-((2S,3S)-1-methyl-5-oxo-2-(pyridin-3-yl)pyrrolidine-3-carboxamido)ethoxy)ethoxy)ethyl)piperidin-4-yl)picolinamide]: the EC50 in experiment [3] is 0.002 µM. Besides, in experiment [1], the “% Depletion of CCR2 expressing cells” value amounted to 88.66%. Further, in experiment [2], the IC50 is 4.66 µM and the Emax at 10 µM is 67.1%.
On to `CC(C)N(C)[C@@H]1CC[C@H](N2CC[C@H](Nc3ncnc4ccc(C(F)(F)F)cc34)C2=O)[C@H](NC(=O)c2ccc(N3CCC(C(=O)NCCOCCOCCNC(=O)[C@H]4CC(=O)N(C)[C@@H]4c4cccnc4)CC3)cc2)C1` [Example 130, 1-(4-(((1R,2S,5R)-5-(Isopropyl(methyl)amino)-2-((S)-2-oxo-3-((6-(trifluoromethyl)quinazolin-4-yl)amino)pyrrolidin-1-yl)cyclohexyl)carbamoyl)phenyl)-N-(2-(2-(2-((2S,3S)-1-methyl-5-oxo-2-(pyridin-3-yl)pyrrolidine-3-carboxamido)ethoxy)ethoxy)ethyl)piperidine-4-carboxamide], for which the EC50 in experiment [3] was 0.000631 µM. Besides, the “% Depletion of CCR2 expressing cells” value in experiment [1] is listed as 81.81%. Further, in experiment [2], the half-inhibitory concentration (IC50) was at least 10 µM and the Emax at 10 µM came to 16.8%.
As for `CC(C)N(C)[C@@H]1CC[C@H](N2CC[C@H](Nc3ncnc4ccc(C(F)(F)F)cc34)C2=O)[C@H](NC(=O)[C@H]2CC[C@H](c3ccc(C(=O)NCCOCCOCCNC(=O)[C@H]4CC(=O)N(C)[C@@H]4c4cccnc4)cc3)CC2)C1` [Example 140, (2S,3S)-N-(2-(2-(2-(4-((1R,4r)-4-(((1R,2S,5R)-5-(Isopropyl(methyl)amino)-2-((S)-2-oxo-3-((6-(trifluoromethyl)quinazolin-4-yl)amino)pyrrolidin-1-yl)cyclohexyl)carbamoyl)cyclohexyl)benzamido)ethoxy)ethoxy)ethyl)-1-methyl-5-oxo-2-(pyridin-3-yl)pyrrolidine-3-carboxamide], the EC50 in experiment [3] is 0.000398 µM. For the same molecule, the “% Depletion of CCR2 expressing cells” value in experiment [1] came out at 89.13%. In addition, in experiment [2], the IC50 was at least 10 µM and the Emax at 10 µM turned out to be 18.2%.
In the same order, the values of `CC(C)N(C)[C@@H]1CC[C@H](N2CC[C@H](Nc3ncnc4ccc(C(F)(F)F)cc34)C2=O)[C@H](NC(=O)C2CCN(c3ccc(C(=O)NCCOCCOCCNC(=O)[C@H]4CC(=O)N(C)[C@@H]4c4cccnc4)cc3)CC2)C1` [Example 142, N-((1R,2S,5R)-5-(Isopropyl(methyl)amino)-2-((S)-2-oxo-3-((6-(trifluoromethyl)quinazolin-4-yl)amino)pyrrolidin-1-yl)cyclohexyl)-1-(4-((2-(2-(2-((2S,3S)-1-methyl-5-oxo-2-(pyridin-3-yl)pyrrolidine-3-carboxamido)ethoxy)ethoxy)ethyl)carbamoyl)phenyl)piperidine-4-carboxamide] are 0.000398 µM, 79.27%, at least 10 µM and 13.1%.
As to `CC(C)N(C)[C@@H]1CC[C@H](N2CC[C@H](Nc3ncnc4ccc(C(F)(F)F)cc34)C2=O)[C@H](NC(=O)CCOCCOCCO[C@H]2CC[C@H](OCCNC(=O)[C@H]3CC(=O)N(C)[C@@H]3c3cccnc3)CC2)C1` [Example 192, (2S,3S)-N-(2-(((1R,4S)-4-(2-(2-(3-(((1R,2S,5R)-5-(Isopropyl(methyl)amino)-2-((S)-2-oxo-3-((6-(trifluoromethyl)quinazolin-4-yl)amino)pyrrolidin-1-yl)cyclohexyl)amino)-3-oxopropoxy)ethoxy)ethoxy)cyclohexyl)oxy)ethyl)-1-methyl-5-oxo-2-(pyridin-3-yl)pyrrolidine-3-carboxamide], the “% Depletion of CCR2 expressing cells” value in experiment [1] is 84.8%. Also, in experiment [2], the IC50 is 74.3 µM and the Emax at 100 µM came to 53%.
